Test results published in patent publication US20060002881A1, “Perfluorocarbon-soluble compounds” (priority 2004, published 2006).

Assays:
Assay type in all cases: physicochemical
[1] = Solvent solubility of perfluoroalkanamides; design: key: S: complete dissolve in the solvent at room temperature; P: precipitation in the solvent; details: 3% w/w; for Solubility in Acetone: room temperature
From the text: It is clear from the observation that perfluoroalkanamides of the present invention can easily form micelles in acetone at room temperature. With shorter perfluoroalkyl group (i.e., C6F13—), perfluoroalkanamide can dissolve into all tested hydrocarbon solvents at room temperature, but precipitate in fluorocarbon (i.e., CF-76).

[2] = Solubility of C7F15-MPEG in PFC; details: decreases with increment of MW of MPEG
[3] = Ternary phase diagram / phase behavior of PFC/water/fluorosurfactant (PFC microemulsion formation)
From the text: The formation of PFC-in-water emulsion requires high energy to disperse PFC as surfactant-stabilized microdroplets in aqueous phase; while, for thermodynamic stable PFC microemulsion, two immiscible liquid phases with the aid of a pertinent fluorosurfactant can turn into an optically isotropic solution simply by gentle mixing. Given in FIG. 2, different phase behaviors were created by titering various concentrations of C7F15CONH-MPEG350 surfactant dissolved in water solution with different amounts of PFOB liquid. Since the specific density of PFOB is 1.94 which is larger than the water density, the milky PFOB-in-water emulsion settled down on the bottom of the vial (FIG. 2A). […]
Aqueous solutions containing given quantities of fluorosurfactant were progressively added with PFC and placed in a thermostat water bath set at 25° C. After each addition, the aspect of the solution was recorded, along with number, nature, and approximate volumes of phases. […] Ternary phase diagrams were then plotted to distinguish the boundaries between different phases and used to quantitate the proportion of three components (water, fluorosurfactant, and PFC) forming PFC microemulsion.
The ternary phase diagram given in FIG. 3 was determined by the weight fraction of water, PFOB, and RF-MPEG350. The PFOB microemulsion domain was determined to be the area under the test points symbolized as ▪. […]

| Molecule | Solubility in CF-76 (3 M) ([1]; > 40° C.) [°C → S] | Solubility in CF-76 (3 M) ([1]; @ RT) | Solubility in Ethanol ([1]; @ RT) | Solubility in Hexane ([1]; @ RT) | Solubility in Acetone [1] | Solubility in Hexane ([1]; > 30° C.) [°C → S] | Solubility in Ethanol ([1]; > 40° C.) [°C → S] | Size of PFC microemulsion domain in ternary phase diagram ([3]; PFOB and ZT85, 25° C.) | Formation of transparent PFC microemulsion ([3]; PFOB or ZT85 / water / fluorosurfactant, 25° C., no co-surfactant) | Solubility in PFOB or ZT85 (rank order) [2] |
| --- | --- | --- | --- | --- | --- | --- | --- | --- | --- | --- |
| CCCCCCCCCCCCNC(=O)C(F)(F)C(F)(F)C(F)(F)C(F)(F)C(F)(F)C(F)(F)F [C6F13CONHC12H25] | 40 | @ RT → P > | S | S | S |  |  |  |  |  |
| CCCCCCCCCCCCNC(=O)C(F)(F)C(F)(F)C(F)(F)C(F)(F)C(F)(F)C(F)(F)C(F)(F)F [C7F15CONHC12H25] | 40 | @ RT → P > | @ RT → P > | @ RT → P > | S | 30 | 40 |  |  |  |
| C7F15CONH-PEG350-OCH3 |  |  |  |  |  |  |  | largest PFC microemulsion region | PFC-in-water microemulsion | C7F15-MPEG350>C7F15-MPEG550>C7F15-MPEG750 |
| C7F15CONH-PEG550-OCH3 |  |  |  |  |  |  |  |  |  | C7F15-MPEG350>C7F15-MPEG550>C7F15-MPEG750 |
| C7F15CONH-PEG750-OCH3 |  |  |  |  |  |  |  |  |  | C7F15-MPEG350>C7F15-MPEG550>C7F15-MPEG750 |

Further lines, with some results ahead:

| Solubility in CF-76 (3 M) ([1]; > 40° C.) [°C → S] | Solubility in CF-76 (3 M) ([1]; @ RT) | Solubility in Ethanol ([1]; @ RT) | Solubility in Hexane ([1]; @ RT) | Solubility in Acetone [1] | Solubility in Hexane ([1]; > 30° C.) [°C → S] | Solubility in Ethanol ([1]; > 40° C.) [°C → S] | Size of PFC microemulsion domain in ternary phase diagram ([3]; PFOB and ZT85, 25° C.) | Formation of transparent PFC microemulsion ([3]; PFOB or ZT85 / water / fluorosurfactant, 25° C., no co-surfactant) | Molecule | Solubility in PFOB or ZT85 (rank order) [2] |
| --- | --- | --- | --- | --- | --- | --- | --- | --- | --- | --- |
|  | S | S | S | S |  |  |  |  | CCCCCCCCNC(=O)C(F)(F)C(F)(F)C(F)(F)C(F)(F)C(F)(F)C(F)(F)C(F)(F)C(F)(F)F [C8F17CONHC8H17] |  |
| 40 | @ RT → P > | @ RT → P > | @ RT → P > | S | 30 | 40 |  |  | CCCCCCCCCCCCNC(=O)C(F)(F)C(F)(F)C(F)(F)C(F)(F)C(F)(F)C(F)(F)C(F)(F)C(F)(F)F [C8F17CONHC12H25] |  |
